Experimental data reported in patent US10175228B2, “Method of using transmembrane channel-like protein 6 (TMC6) protein to identify substances affecting salty taste” (priority 2016, dated 2019).

Tested on: Pongo abelii TMC6 protein
Assay: Calcium imaging of CHO-K1 cells expressing the Pongo abelii TMC6 gene
Assay type: cell-based
Settings: stimulation with high-concentration NaCl solution for 60 sec, 31 cells
Excerpt: CHO-K1 cells were transfected with Macaca mulatta TMC6-2A-YC260TM in pcDNA3.1(−), Pongo abelii TMC6-2A-YC260TM in pcDNA3.1(−), Mouse-Aotus nancymaae chimera TMC6 2A-YC260TM in pcDNA3.1(−), or YC2.60-pcDNA, to prepare TMC6-expressing cells (cells expressing the Macaca mulatta TMC6 gene, the Pongo abelii TMC6 gene, or the mouse/Aotus nancymaae chimeric TMC6 gene, in combination with the YC2.60 gene) and control cells (cells expressing the YC2.60 gene). The prepared cells were stimulated, and activation of the cells was measured. The procedure was as follows.
First, a plurality of sterile cover glasses (18×32 mm, Matsunami Glass) were placed at the bottom of a culture dish having a diameter of 100 mm so as not to be overlapped to each other. CHO-K1 cells (ATCC) were inoculated thereto while adjusting the number of the cells to obtain 60% confluence, and cultured for 24 hr. Then, medium exchange was carried out. As the medium, 12 mL of Ham's F-12K (Kaighn's) (Life Technologies) containing 10% fetal bovine serum (Life Technologies) was used. […]
Change of the intracellular calcium concentration was measured and analyzed with analysis software equipped with FV1200. An average YFP/CFP value of all the cell of which the YFP/CFP value was changed by stimulation with the ATP stimulation solution was calculated at each measurement. […]

[Cl-].[Na+] [NaCl, sodium chloride] was tested, and the “change of average YFP/CFP value (intracellular calcium concentration)” value was “increase”.
